In brackets after ≈: the same amount, converted by molar mass.
Assays:
Plasmodium yoelii [1] = test: Antimalarial activity against erythrocytic Plasmodium yoelii MRA-428 infected in CF1 mouse assessed as reduction in parasitemia at 50 mg/kg, po once daily for 4 days measured on day 5; type: functional; design: scale not given: the % may be the effect or the level left; details: time 4 day
[2] = Metabolic stability in human liver microsomes assessed as half life measured up to 60 mins by LC/MS analysis; type: ADME, Microsome
Plasmodium yoelii [3] = test: Antimalarial activity against erythrocytic Plasmodium yoelii MRA-428 infected in CF1 mouse assessed as reduction in parasitemia at 25 mg/kg, po once daily for 4 days measured on day 5; type: functional; design: scale not given: the % may be the effect or the level left; details: time 4 day
[4] = Solubility of the compound in potassium phosphate buffer at pH 7.4 by UV-vis spectroscopy; details: buffer
Plasmodium falciparum [5] = test: microbe, parasite or virus in culture; details: D6, 72 h
Description: Antiplasmodial activity against asexual blood-stage Plasmodium falciparum D6 using 2% haematocrit and 0.2% parasitemia assessed as reduction in fluorescence measured after 72 hrs by Malaria SYBR Green I-based Fluorescence (MSF) assay

Plasmodium yoelii [6] = test: Antimalarial activity against erythrocytic Plasmodium yoelii MRA-428 infected in CF1 mouse assessed as cured mouse at 50 mg/kg, po once daily for 4 days measured on day 28 day; type: functional, organism-based; details: time 4.0 day
[7] = Metabolic stability in mouse liver microsomes assessed as half life measured up to 60 mins by LC/MS analysis; type: ADME, Microsome
MDR1 (human) [8] = test: Apparent permeability across basolateral to apical side in MDCK transfected with human MDR1 cells incubated for 1 hr by LC-MS analysis; details: dog, MDCK-MDR1
Plasmodium falciparum [9] = test: microbe, parasite or virus in culture; details: Dd2, 72 h
Description: Antiplasmodial activity against asexual blood-stage Plasmodium falciparum Dd2 using 2% haematocrit and 0.2% parasitemia assessed as reduction in fluorescence measured after 72 hrs by Malaria SYBR Green I-based Fluorescence (MSF) assay

in vitro [10] = details: human, liver microsomes
MDR1 (human) [11] = test: Apparent permeability across apical to basolateral side in MDCK transfected with human MDR1 cells incubated for 1 hr by LC-MS analysis; details: dog, MDCK-MDR1
HepG2 = test: Cytotoxicity against human HepG2 cells assessed as cell viability measured after 48 hrs by MTT assay; type: toxicity, cell-based; details: hepg2
Plasmodium yoelii [12] = test: Antimalarial activity against erythrocytic Plasmodium yoelii MRA-428 infected in CF1 mouse assessed as cured mouse at 25 mg/kg, po once daily for 4 days measured on day 28 day; type: functional, organism-based; details: time 4.0 day
Plasmodium falciparum [13] = test: Antiplasmodial activity against asexual blood-stage Plasmodium falciparum Tm90-C2B using 2% haematocrit and 0.2% parasitemia assessed as reduction in fluorescence measured after 72 hrs by Malaria SYBR Green I-based Fluorescence (MSF) assay; type: functional, organism-based
in vitro [14] = details: mouse, liver microsomes
Plasmodium yoelii [15] = test: Antimalarial activity against erythrocytic Plasmodium yoelii MRA-428 infected in CF1 mouse assessed as reduction in parasitemia at 10 mg/kg, po once daily for 4 days measured on day 5; type: functional; design: scale not given: the % may be the effect or the level left; details: time 4 day
MDR1 (human) [16] = test: Efflux ratio, ratio of apparent permeability across apical to basolateral side over basolateral to apical side in MDCK transfected with human MDR1 cells incubated for 1 hr by LC-MS analysis; details: dog
in vitro [17] = details: human
Description: Selectivity index, ratio of IC50 for cytotoxicity against human HepG2 cells to IC50 for antiplasmodial activity against asexual blood-stage Plasmodium falciparum D6

Row | SMILES | Activity (Plasmodium yoelii [1]) | half-life [2] | Activity (Plasmodium yoelii [3]) | solubility [4] | IC50 (Plasmodium falciparum [5]) | Activity (Plasmodium yoelii [6]) | half-life [7] | Papp B→A at 1 h (MDR1 (human) [8]) | IC50 (Plasmodium falciparum [9]) | microsomal CLint at 1 h (in vitro [10]) | Papp A→B at 1 h (MDR1 (human) [11]) | IC50 (HepG2) | Activity (Plasmodium yoelii [12]) | IC50 (Plasmodium falciparum [13]) | microsomal CLint at 1 h (in vitro [14]) | Activity (Plasmodium yoelii [15]) | efflux ratio at 1 h (MDR1 (human) [16]) | selectivity ratio (in vitro [17])
1 | CC1=C(C)/C(=C/NC2CCCCC2)N=C1c1ccc(C)[nH]1 | 100% | > 60 min | 100% | 168 µM (≈ 47.6 µg/mL) | 9.92 nM | Not active; None Of The Mouse Cured Out Of Four Tested | 37.2 min | 0.37 ×10⁻⁶ cm/s | 4.17 nM | 13.6 µL/min/mg | 0.053 ×10⁻⁶ cm/s | 6820 nM | Not active; None Of The Mouse Cured Out Of Four Tested | 4.9 nM | 37.3 µL/min/mg | 0% |  | 
2 | CCC1=C(CC)/C(=C/NC2CCCCCC2)N=C1c1ccc(Cl)[nH]1 |  | > 60 min |  | 14.4 µM (≈ 4.98 µg/mL) | 460 nM |  | > 60 min | 0.076 ×10⁻⁶ cm/s | 254 nM | 22.2 µL/min/mg | 0.19 ×10⁻⁶ cm/s |  |  | 180 nM | 8.33 µL/min/mg |  | 0.4 | 
3 | C(/NC1CCCCC1)=C1/N=C(c2ccc[nH]2)C2=C1CCCC2 | 100% |  | 100% | 294 µM (≈ 86.9 µg/mL) |  | Not active; None Of The Mouse Cured Out Of Four Tested | 23.8 min | 0.092 ×10⁻⁶ cm/s | 13.2 nM | 51.9 µL/min/mg | 0.27 ×10⁻⁶ cm/s |  | Not active; None Of The Mouse Cured Out Of Four Tested | 16.6 nM | 58.2 µL/min/mg | 88.8% |  | 
4 | CCC1=C(C)/C(=C/NC2CCCCCCC2)N=C1c1ccc(CC)[nH]1 | 100% | 41.4 min | 100% | 10 µM (≈ 3.4 µg/mL) | 7.39 nM | Not active; None Of The Mouse Cured Out Of Four Tested | > 60 min |  | 9.01 nM | 33.4 µL/min/mg | 0.095 ×10⁻⁶ cm/s | 4280 nM | Not active; None Of The Mouse Cured Out Of Four Tested | 2.98 nM | 17.5 µL/min/mg | 61.9% |  | 
5 | CC1=C(C)/C(=C/NC2CCCCCC2)N=C1c1ccc(C)[nH]1 | 100% | 55 min | 100% | 72.3 µM (≈ 21.5 µg/mL) | 12.4 nM | Not active; None Of The Mouse Cured Out Of Four Tested | 36.8 min | 0.12 ×10⁻⁶ cm/s | 3.73 nM | 25.2 µL/min/mg | 0.006 ×10⁻⁶ cm/s | 6770 nM | Not active; None Of The Mouse Cured Out Of Four Tested | 4.84 nM | 37.6 µL/min/mg | 0% |  | 
6 | CCC1=C(CC)/C(=C/NC2CCCCC2)N=C1c1ccc(Cl)[nH]1 |  | > 60 min |  | 22.6 µM (≈ 7.5 µg/mL) | 391 nM |  | > 60 min | 0.12 ×10⁻⁶ cm/s | 232 nM | 8.01 µL/min/mg | 0.71 ×10⁻⁶ cm/s |  |  | 202 nM | 0.67 µL/min/mg |  | 0.17 | 
7 | CCC1=C(CC)/C(=C/NC23C[C@H]4C[C@@H](C2)C[C@@H](C3)C4)N=C1c1ccccc1O |  |  |  |  | 130 nM |  |  |  | 188 nM |  |  | 12200 nM |  | 310 nM |  |  |  | 93
8 | CCC1=C(CC)/C(=C/NC2CCCCCC2)N=C1c1ccc(CC)[nH]1 | 100% | > 60 min | 100% | 30.1 µM (≈ 10.2 µg/mL) | 7.2 nM | Not active; None Of The Mouse Cured Out Of Four Tested | > 60 min | 0.012 ×10⁻⁶ cm/s | 3.21 nM | 13.3 µL/min/mg | 0.03 ×10⁻⁶ cm/s | 3640 nM | Not active; None Of The Mouse Cured Out Of Four Tested | 4.57 nM | 5.29 µL/min/mg | 37.6% |  | 
9 | CCC1=C(C)/C(=C/NC2CCCCC2)N=C1c1ccc(C)[nH]1 | 100% | > 60 min | 100% | 72.5 µM (≈ 21.6 µg/mL) | 27.4 nM | Not active; None Of The Mouse Cured Out Of Four Tested | 31.7 min | 0.099 ×10⁻⁶ cm/s | 15.7 nM | 6.07 µL/min/mg | 0.33 ×10⁻⁶ cm/s | 8090 nM | Not active; None Of The Mouse Cured Out Of Four Tested | 32.3 nM | 43.7 µL/min/mg | 80.3% |  | 
10 | CCC1=C(CC)/C(=C/N[C@H]2CC[C@H](C(=O)OC)CC2)N=C1c1ccc[nH]1 |  | 14.4 min |  | 121 µM (≈ 43 µg/mL) | 367 nM | Not active; None Of The Mouse Cured Out Of Four Tested | 12.6 min | 0.74 ×10⁻⁶ cm/s | 299 nM | 96.4 µL/min/mg | 0.088 ×10⁻⁶ cm/s |  |  | 405 nM | 110 µL/min/mg |  | 8.4 | 
11 | CCC1=C(CC)/C(=C/NC2CCCCCC2)N=C1c1ccc(Br)[nH]1 |  | > 60 min |  | < 3.125 µM | 281 nM |  | 58.5 min | 0.001 ×10⁻⁶ cm/s | 224 nM | 13 µL/min/mg | 0.004 ×10⁻⁶ cm/s |  |  | 130 nM | 23.7 µL/min/mg |  | 0.26 | 
12 | CCC1=C(CC)/C(=C/NC2CCCCC2)N=C1c1cc2cc(Cl)ccc2[nH]1 |  | 24.5 min |  | 30.7 µM (≈ 11.7 µg/mL) | 536 nM |  | > 60 min | 0.001 ×10⁻⁶ cm/s | 467 nM | 56.5 µL/min/mg | 0.002 ×10⁻⁶ cm/s |  |  | 471 nM | 19.7 µL/min/mg |  | 0.59 | 
13 | CCC1=C(CC)/C(=C/NC2CCCCC2)N=C1c1ccc[nH]1 | 100% | 30.5 min | 100% | 307 µM (≈ 91.3 µg/mL) | 72.1 nM | Not active; None Of The Mouse Cured Out Of Four Tested | 40.1 min | 0.18 ×10⁻⁶ cm/s | 115 nM | 45.5 µL/min/mg | 0.22 ×10⁻⁶ cm/s | 13000 nM | Not active; None Of The Mouse Cured Out Of Four Tested | 79.9 nM | 34.5 µL/min/mg | 94.4% |  | 
